Measurements as given in patent US4784955A, “Immunogen conjugates and the use thereof in a dihydropyridine assay” (Miles Inc., priority 1986, dated 1988).
Where two headings read alike, the source gives them in different places.

Assays:
[1] = system: monoclonal antibody XIIIE82 /H8; assay: Binding of radioactive Ca2+ channel blockers to monoclonal antibody XIIIE82 /H8-Sepharose 6MB beads; set-up: species or system mouse; conditions: for ability to bind to monoclonal antibody XIIIE82 /H8-Sepharose 6MB beads (in words): 1.0 nM concentration; for CPM Bound / fmoles of Ca2+ channel blocker specifically bound per μg of monoclonal antibody XIIIE82 /H8: [3H]calcium channel blocker 1.0 nM
Protocol: Various radioactive Ca^2+ channel blockers at a 1.0 nM concentration were tested for their ability to bind to monoclonal antibody XIIIE82 /H8-Sepharose 6MB beads.

[2] = system: monoclonal antibody XIIIE82 /H8; assay: Nifedipine radioimmunoassay using monoclonal antibody XIIIE82 /H8-Sepharose 6MB beads; conditions: 100 pM [3H]nitrendipine
[3] = system: 1,4-dihydropyridine-specific antibodies; assay: 1,4-Dihydropyridine radioimmunoassay (dextran-coated charcoal separation), nitrendipine standard curve; type: binding; conditions: 20 pM [3H]nitrendipine; for % B/Bo: 60 min
Protocol: After a 1 hour incubation in the dark at room temperature, the assay tubes were transferred to an ice water bath for 10 min. […] After an additional 12 minutes in the ice bath, the assay tubes were centrifuged for 15 minutes at 850×g in a Beckman TJ-6 centrifuge. A 0.80 ml sample of the clear supernatant was then added to 10 ml of liquid scintillation fluid and counted in a Beckman LS8100 liquid scintillation counter. […] An alternate procedure for the RIA on human plasma samples involves the dilutions of standards in normal pooled human plasma (rather than in bovine serum albumin in saline, as described above) and the use of 0.2 ml aliquots of standard or human plasma samples.

[4] = system: monoclonal antibody XH42 /G1
[5] = target: XIIIE82 /H8-monoclonal antibody; assay: Competitive binding assay according to the method of Muller, XIIIE82 /H8; set-up: species or system mouse; conditions: [3H]nitrendipine-XIIIE82 /H8-monoclonal antibody complex; read-out: average apparent dissociation constant (Kd)
Protocol: (§1) The affinity of the monoclonal antibodies of the present invention for [^3 H]nitrendipine was determined using a competitive binding assay according to the method of Muller (Muller, R., Methods in Enzylmology, 92, 589-601, 1983).

[6] = target: XH42 /Gl monoclonal antibody; assay: Competitive binding assay according to the method of Muller, XH42 /Gl; set-up: species or system mouse; conditions: [3H]nitrendipine-XH42 /Gl monoclonal antibody complex; read-out: average apparent dissociation constant (kd)
Protocol: as §1

[7] = system: polyclonal antibodies prepared against the immunogen conjugates; assay: Cross-reactivity with polyclonal antibodies prepared against the immunogen conjugates; type: binding
[8] = system: New Zealand white rabbits; conditions: immunized rabbits
Source text: In order to raise antibodies against the 1,4-hydropyridines, a bovine serum albumin-nifedipine iothiocyanate immunogen conjugate was used directly for immunization or was cross-linked with 0.04% glutaraldehyde for eight hours at room temperature prior to immunization of rabbits. In either case, the immunogen conjugate was emulsified in an equal volume of Freund's complete adjuvant.
New Zealand white rabbits were bled to obtain pre-immune sera and were then immunized intramuscularly and intradermally at multiple sites along the back and legs. Rabbits received 0.5 milligram (mg) of bovine serum albumin-nifedipine isothiocyanate immunogen conjugate in Freund's complete adjuvant on day 0 followed by 0.5 mg insults in Freund's incomplete adjuvant every 2-3 weeks. Rabbits were bled after their third immunization every two weeks. Blood was withdrawn from the ear vein, allowed to clot overnight at 4° C., and serum was isolated by centrifugation. In order to reduce the antibodies produced to bovine serum albumin, subsequent immunizations were carried out with keyhole limpet hemocyanin-nifedipine isothiocyanate immunogen conjugates. […]

[9] = nifedipine standard 3.7 nanograms/ml in final assay mixture
[10] = nifedipine standard 11.2 nanograms/ml
[11] = nifedipine standard 18.7 nanograms/ml
[12] = nifedipine standard 37.3 nanograms/ml
[13] = nifedipine standard 112.0 nanograms/ml
[14] = nifedipine standard 186.7 nanograms/ml
[15] = nifedipine standard 373.4 nanograms/ml
[16] = nifedipine standard 1866.8 nanograms/ml
[17] = nitrendipine standard 18.0 picograms/ml in final assay mixture
[18] = nitrendipine standard 36.0 picograms/ml
[19] = nitrendipine standard 72.0 picograms/ml
[20] = nitrendipine standard 180.0 picograms/ml
[21] = nitrendipine standard 360.0 picograms/ml
[22] = nitrendipine standard 720.0 picograms/ml
[23] = nitrendipine standard 1800.0 picograms/ml
[24] = nitrendipine standard 0.4 nanograms/ml in final assay mixture
[25] = nitrendipine standard 1.1 nanograms/ml
[26] = nitrendipine standard 1.8 nanograms/ml
[27] = nitrendipine standard 3.7 nanograms/ml
[28] = nitrendipine standard 11.0 nanograms/ml
[29] = nitrendipine standard 18.3 nanograms/ml
[30] = nitrendipine standard 37.4 nanograms/ml

Compound: COC(=O)C1=C(C)NC(C)=C(C(=O)OC(C)C)C1c1cccc2nonc12 (single isomer, unassigned) [[^3 H]PN200-110]
- ability to bind to monoclonal antibody XIIIE82 /H8-Sepharose 6MB beads (in words) [1]: specifically bind
- CPM Bound [1]: 9419 CPM
- fmoles of Ca2+ channel blocker specifically bound per μg of monoclonal antibody XIIIE82 /H8 [1]: 4.8 fmol/µg

Compound: COC(=O)C1=C(C)NC(C)=C(C(=O)OC)C1c1ccccc1[N+](=O)[O-] [Nifedipine]
- % B/Bo [2, 9]: 102.0%
- Net CPM [2, 9]: 8010 CPM
- % B/Bo [2, 10]: 98.2%
- Net CPM [2, 10]: 7708 CPM
- % B/Bo [2, 11]: 76.7%
- Net CPM [2, 11]: 6027 CPM
- % B/Bo [2, 12]: 50.9%
- Net CPM [2, 12]: 3998 CPM
- % B/Bo [2, 13]: 23.4%
- Net CPM [2, 13]: 1837 CPM
- % B/Bo [2, 14]: 14.5%
- Net CPM [2, 14]: 1138 CPM
- % B/Bo [2, 15]: 8.6%
- Net CPM [2, 15]: 677 CPM
- % B/Bo [2, 16]: 2.4%
- Net CPM [2, 16]: 190 CPM

Compound: CCOC(=O)C1=C(C)NC(C)=C(C(=O)OC)C1c1cccc([N+](=O)[O-])c1 (centres unmarked) [Nitrendipine, 2,6-dimethyl-3-carboethoxy-5-carbomethoxy-4-(3-nitrophenyl)-1,4-dihydropyridine]
- Net CPM [3, 17]: 1492 CPM
- % B/Bo [3, 17]: 85.4%
- Net CPM [3, 18]: 1406 CPM
- % B/Bo [3, 18]: 80.5%
- Net CPM [3, 19]: 1024 CPM
- % B/Bo [3, 19]: 58.6%
- Net CPM [3, 20]: 673 CPM
- % B/Bo [3, 20]: 38.5%
- Net CPM [3, 21]: 482 CPM
- % B/Bo [3, 21]: 27.6%
- Net CPM [3, 22]: 346 CPM
- % B/Bo [3, 22]: 19.8%
- Net CPM [3, 23]: 225 CPM
- % B/Bo [3, 23]: 12.9%
- % B/Bo [4, 24]: 107.1%
- Net CPM [4, 24]: 2043 CPM
- % B/Bo [4, 25]: 87.8%
- Net CPM [4, 25]: 1676 CPM
- % B/Bo [4, 26]: 76.3%
- Net CPM [4, 26]: 1456 CPM
- % B/Bo [4, 27]: 60.2%
- Net CPM [4, 27]: 1149 CPM
- % B/Bo [4, 28]: 37.6%
- Net CPM [4, 28]: 717 CPM
- % B/Bo [4, 29]: 28.1%
- Net CPM [4, 29]: 535 CPM
- % B/Bo [4, 30]: 17.5%
- Net CPM [4, 30]: 333 CPM

Compound: COc1ccc([C@@H]2Sc3ccccc3N(CCN(C)C)C(=O)[C@@H]2OC(C)=O)cc1 [[^3 H]Diltiazem]
- ability to bind to monoclonal antibody XIIIE82 /H8-Sepharose 6MB beads (in words) [1]: did not bind
- CPM Bound [1]: 225 CPM
- fmoles of Ca2+ channel blocker specifically bound per μg of monoclonal antibody XIIIE82 /H8 [1]: 0.1 fmol/µg

Compound: COC(=O)C1=C(C)NC(C)=C(C(=O)OC)C1c1ccccc1N=C=S [[^3 H]Nifedipine-Analog, 1,4-dihydro-2,6-dimethyl-4-(2-isothiocyanatophenyl)-3,5-pyridinedicarboxylic acid dimethyl ester]
- ability to bind to monoclonal antibody XIIIE82 /H8-Sepharose 6MB beads (in words) [1]: specifically bind
- CPM Bound [1]: 26000 CPM
- fmoles of Ca2+ channel blocker specifically bound per μg of monoclonal antibody XIIIE82 /H8 [1]: 18.8 fmol/µg

Compound: COCCOC(=O)C1=C(C)NC(C)=C(C(=O)OC(C)C)C1c1cccc([N+](=O)[O-])c1 (centres unmarked) [[^3 H]Nimodipine]
- ability to bind to monoclonal antibody XIIIE82 /H8-Sepharose 6MB beads (in words) [1]: specifically bind
- CPM Bound [1]: 57439 CPM
- fmoles of Ca2+ channel blocker specifically bound per μg of monoclonal antibody XIIIE82 /H8 [1]: 20.9 fmol/µg

Compound: CCOC(=O)C1=C(C)NC(C)=C(C(=O)OC)C1c1cccc([N+](=O)[O-])c1 (centres unmarked) [[^3 H]Nitrendipine, 2,6-dimethyl-3-carboethoxy-5-carbomethoxy-4-(3-nitrophenyl)-1,4-dihydropyridine]
- ability to bind to monoclonal antibody XIIIE82 /H8-Sepharose 6MB beads (in words) [1]: specifically bind
- CPM Bound [1]: 59103 CPM
- fmoles of Ca2+ channel blocker specifically bound per μg of monoclonal antibody XIIIE82 /H8 [1]: 33.8 fmol/µg
- Kd [5]: 0.026 µM
- Kd [6]: 0.0125 µM

Compound: COc1ccc(CCN(C)CCCC(C#N)(c2ccc(OC)c(OC)c2)C(C)C)cc1OC (centres unmarked) [[^3 H]Verapamil]
- ability to bind to monoclonal antibody XIIIE82 /H8-Sepharose 6MB beads (in words) [1]: did not bind
- CPM Bound [1]: 234 CPM
- fmoles of Ca2+ channel blocker specifically bound per μg of monoclonal antibody XIIIE82 /H8 [1]: 0.2 fmol/µg

Compound: COc1ccc([C@@H]2Sc3ccccc3N(CCN(C)C)C(=O)[C@@H]2OC(C)=O)cc1 [diltiazem]
- cross-reaction with the antibodies [7]: do not cross-react

Compound: COc1ccc(CCN(C)CCCC(C#N)(c2ccc(OC)c(OC)c2)C(C)C)cc1OC (centres unmarked) [verapamil]
- cross-reaction with the antibodies [7]: do not cross-react

Compound: Keyhole limpet hemocyanin
- time to antibody response [8]: 4 weeks
- titer of antiserum of 1,4-dihydropyridine-specific antibodies [8]: highest titer
